From patent publication US7632872B2, “Analgesic agent for newborn or fetal subjects” (Protexeon Limited, priority 2002, dated 2009)
Read-outs that look alike come from different tables or passages of the source. Marks after values point to notes of the source that are not given here.

Legend:
[1] = system: Fischer rats; assay: Formalin plantar test, nociceptive intensity scoring (behaviour); type: in vivo, rat; conditions: for area under curve (AUC) of nociceptive intensity scoring curves: 70% Xe + formalin, AUC over 60 min, mean(SEM), n=3-4
Procedure: (§1) The study protocol was approved by the Home Office (UK), and all efforts were made to minimize animal suffering and the number of animals used. Fischer rats were used for the entire study (B&K Universal, Grimston Aldbrough Hull, UK). The rats were provided ad libitum food and water, and artificial lighting between 6 a.m. and 6 p.m. The age of each animal was determined from the body weight, based on a previously established growth curve (Hashimoto et al., 2002). (The date of birth was defined as 0 day-old.) Experiments were performed on rat pups of 7, 19, 28 day-old and on adult rats (11-12 week-old).
(§2) Within each age-group, there were three cohorts (n=3 - 4) “Air+formalin”, “Xenon+formalin” and “Air+saline” cohorts. In the Air+formalin group, animals exposed to air were injected with 5% formalin into the plantar surface of their left hind paw subcutaneously. In the Xenon+formalin group, animals exposed to 70% Xe/20% O2/10% N2 were injected with 5% formalin as described above. In the Air+saline group, animals exposed to air were injected with saline as above. The volumes of formalin or saline injected were adjusted for each age group as previously reported [Ohashi Y et al, Pain 2002;100:7-18] and were as follows: 10 μl for 7 days old; 15 μl for 19 days old; 20 μl for 28 days old; 50 μl for adults.
(§3) A recirculating system for exposure to the gas was constructed to minimise xenon consumption (FIG. 3). The circuit was flushed with gas (either air or xenon/oxygen/nitrogen) at a flow rate of 4 l/min and after the desired gas concentrations were achieved, the flow rate was reduced to 40 ml/min for the remainder of the experimental period. The carbon dioxide level and the humidity were kept less than 0.6% and 50% respectively with soda lime and silica gel. Formalin or saline was administered 15 min after gas exposure; thereafter, animals were exposed to the gas mixture for a further 90 min.
Immediately after injection of formalin, behavior was recorded for 60 min with a video camera (MegaPixel, Digital Handycam, Sony) positioned approximately 50 cm beneath the floor of the chamber to allow an unobstructed view of the paws (visible via a television monitor) and to facilitate recording of animal behavior. The chamber and holding area for pups waiting to be tested were maintained at room temperature throughout the experiment.
Older rat pups were scored across four categories of pain behavior after xenon administration: no pain (the injected paw was in continuous contact with floor=“0”), favoring (the injected paw rested lightly on the floor=“1”), lifting (the injected paw was elevated all the time=“2”) and licking (licking, biting or shaking of the injected paw=“3”) [Teng C J et al, Pain 1998;76:337-47] and calculated as [Nociceptive score =(T1+[T2×2]+[T3×3])/300, where T1, T2 and T3 are the durations (sec) spent in categories 1, 2 or 3 per 300 sec epoch].
The nociceptive intensity scoring against time in each animal was plotted and the area under curve (over a 60 min time period) (AUC) from each animal was calculated. The mean of c-Fos positive neurons for three representative sections in each region as described above was the aggregate score for each animal. The results of nociceptive intensity or c-Fos positive neurons are reported as means±SEMs. The statistical analysis was performed by one-way analysis of variance, followed by Newman-Keuls test. A p value <0.05 was regarded as statistically significant.

[2] = system: c-Fos expression; assay: Formalin-induced c-Fos expression at the lumbar level of the spinal cord (immunohistochemistry); type: in vivo, rat; conditions: ipsilateral, 70% Xe; for reduction of c-Fos expression in response to formalin: 7 day-old pups; for suppression of mean c-Fos expression: 19 day-old rats; for depression of c-Fos expression in response to formalin: 28 day-old rats; for inhibition of c-Fos expression: adult rats
Procedure: as §1, §2, §3
Ninety min after the formalin injection, animals were deeply anesthetised with pentobarbital (100 mg/kg, i.p.) and perfused with 4% paraformaldehyde. The whole spinal cord was removed. The lumbar enlargement was sectioned transversely at 30 μm and then was stained for c-Fos as previously described [Ma D et al, Br J Anaesth 2002;89:73946]. Briefly, sections were incubated for 30 min in 0.3% H2O2 in methanol and thereafter washed three times in 0.1M phosphate buffered saline (PBS). Following this, the sections were incubated for 1 hour in a “blocking solution” consisting of 3% donkey serum and 0.3% Triton X in PBS (PBT) and subsequently incubated overnight at 4° C. in 1:5,000 goat anti-c-Fos antibody (sc-52-G, Santa Cruz Biotechnology, Santa Cruz, Calif.) in PBT with 1% donkey serum. The sections were then rinsed 3 times with PBT and incubated with 1:200 donkey anti-goat IgG (Vector laboratories, Burlingame, Calif.) in PBT with 1% Donkey serum for 1 hour. The sections were washed again with PBT and incubated with avidin-biotin-peroxidase complex (Vector Laboratories) in PBT for 1 hour. The sections were rinsed 3 times with PBS and stained with 3,3′-diaminobenzidine (DAB) with nickel ammonium sulphate in which hydrogen peroxide was added (DAB kit, Vector Laboratories). After the staining was completed, the sections were rinsed in PBS followed by distilled water and mounted, dehydrated with 100% ethanol, cleaned with 100% xylene and covered with cover slips.
Photomicrographs of three sections per each animal were scored for c-Fos positive neurons by an observer who was blinded to the experimental treatment. For the purpose of localizing the c-Fos positive cells to functional regions of the spinal cord, each section was divided into A/B (laminae I-II or the superficial area), C (laminae […] or nucleus proprius area), D (laminae V-VI or the neck area and E (laminae VII-Xor the ventral area) [Yi D K et al, Pain 1995;60:257-265]. […]

[3] = administration of xenon; cited from earlier work
[4] = in vivo; cited from earlier work
[5] = system: c-Fos positive neurones; assay: Example 1: formalin hindpaw injection in 7 day neonatal rat pup, cFos positive neurones in dorsal horn; type: in vivo; conditions: 7 day old rat; dorsal horn of spinal cord; 90 minutes after formalin; xenon 70% v/v, nitrous oxide at a normally analgesic dose in the adult rat
Procedure: The analgesic efficacy of xenon was investigated in a neonatal rat pup. A 7 day neonatal rat pup is known to be developmentally equivalent to a human full term fetus with respect to pain processing pathways.
A 7 day old rat was injected with formalin into the hindpaw during exposure to either air or xenon (70% v/v). 90 minutes later the animal was killed and the spinal cord removed; evidence of activation of pain-processing pathways by formalin was sought by counting the number of cFos positive neurones in the dorsal horn of the spinal cord.

[6] = system: NMDA receptor; conditions: 80% xenon; cultured hippocampal neurons; cited from earlier work
[7] = cited from earlier work
[8] = system: rats; conditions: cited from earlier work

[Xe] [xenon]
area under curve (AUC) of nociceptive intensity scoring curves ([1]; 7-day-old Fischer rats, P<0.001 vs Air + formalin 11(0.4)): 0.17(0.04)**
area under curve (AUC) of nociceptive intensity scoring curves ([1]; 19-day-old Fischer rats, P<0.01 vs Air + formalin 88(8)): 5(0.9)*
area under curve (AUC) of nociceptive intensity scoring curves ([1]; 28-day-old Fischer rats, P<0.001 vs Air + formalin 81(7)): 1.0(0.3)**
nociceptive behaviour after formalin injection ([1]; 7 day-old rats exposed to xenon, 60-min observation period): only mild nociceptive behaviour for the first two minutes
area under curve (AUC) of nociceptive intensity scoring curves ([1]; Adult Fischer rats, P<0.001 vs Air + formalin 120(0.7)): 0.8(0.1)**
reduction of c-Fos expression in response to formalin ([2]; lamina C, P<0.001): 50%
reduction of c-Fos expression in response to formalin ([2]; lamina D, P<0.001): 50%
reduction of c-Fos expression in response to formalin ([2]; lamina E, P<0.01): 28%
reduction of c-Fos expression in response to formalin ([2]; laminae A/B, P<0.001): 48%
suppression of mean c-Fos expression ([2]; lamina III-IV, P<0.001): 57%
suppression of mean c-Fos expression ([2]; lamina V-VI, P<0.001): 62%
suppression of mean c-Fos expression ([2]; laminae I-II, P<0.001): 55%
depression of c-Fos expression in response to formalin ([2]; lamina III-IV, P<0.001): 27%
depression of c-Fos expression in response to formalin ([2]; lamina V-VI, P<0.001): 28%
depression of c-Fos expression in response to formalin ([2]; laminae I-II, P<0.001): 34%
inhibition of c-Fos expression ([2]; lamina III-IV, P<0.001): 45%
inhibition of c-Fos expression ([2]; lamina V-VI, P<0.001): 34%
inhibition of c-Fos expression ([2]; laminae I-II, P<0.001): 41%
inherent neurotoxicity of NMDA antagonists [3]: does not appear to exist
teratogenic effects [4]: devoid of teratogenic effects
effect on formalin-induced c-Fos positive neurones [5]: almost completely attenuated
reduction of NMDA-activated currents [6]: up to 60%
minimum alveolar concentration (MAC) ([7]; elderly female patients): 51 % atn
minimum alveolar concentration (MAC) ([7]; humans): 71 % atm
MAC-awake ([7]; in vivo): 33%

[N-]=[N+]=O [N2O, Nitrous oxide]
antinociceptive effect (behaviorally and immunohistochemically) ([8]; animals younger than 23 days old, formalin): no antinociceptive effect
antinociceptive effects against thermal and inflammatory stimulation ([8]; rats under 3 weeks of age): lacks antinociceptive effects
effect on formalin-induced c-Fos positive neurones [5]: did not change
MAC ([7]; humans): 104%
